From patent US12202866B2, “Therapeutic nanoconjugates and uses thereof” (UNIVERSITAT AUTÒNOMA DE BARCELONA (UAB), priority 2017, dated 2025)
Marks after values point to notes of the source that are not given here.

Columns and labels:
[1] = test system: subcutaneous CXCR4^+ SW1417 CRC tumor; assay: Induction of DNA double strand breaks and apoptosis in tumor tissue, SC SW1417 model; type: in vivo, mouse
Protocol: The SC SW1417 mouse model was used to determine the capacity of the nanoconjugate to induce DNA damage and apoptosis in tumor tissue, as well as the kinetics of CXCR4 expression in the membrane of tumor cells after treatment, regarding the fraction of CXCR4 expressing tumor cells and their intensity, since CXCR4^+ are the target cells for the nanoconjugate. […] The mice had been treated with equimolecular dosages of T22-GFP-H6, free oligo-FdU or Buffer, in which also were determined the levels of CXCR4 expression in tumor tissue at the different time points.

[2] = test system: CXCR4^+ SW1417 CRC metastases; assay: Regression of established metastasis protocol, orthotopic CXCR4+ SW1417 CRC model; type: in vivo, Swiss nude mice
Protocol: Swiss nude mice were anesthetized with ketamine and xylazine, exteriorizing their cecum by a laparotomy. 2×106 CXCR4^+ SW1417-luci CRC cells (expressing luciferase, to allow ex vivo bioluminescent identification of metastatic foci in affected organs at the end of therapy) were suspended in […] of modified Eagle's medium, and loaded into a sterile micropipette. The cell suspension was slowly injected, under a binocular lens, with an approximate 30° angle and its tip introduced 5 mm into the cecal wall. Afterward, a slight pressure was applied with a cotton stick at approximately 2 mm from the injection point in the direction of the pipette axis. The pipette was pulled out and the area around the injection cleaned with 3% iodine. After injection, the gut was returned to the abdominal cavity and closed with surgical staples.
The orthotopic and metastatic CRC model developed in Swiss nude mice was employed to perform experiments of metastasis regression. […] The experiment was finished when the first animal of the buffer-treated-group had to be euthanized. See below the studied parameters to evaluate the antimetastatic effect.
At necropsy, the number and size of visible metastases in the organs where dissemination is expected in colorectal cancer (lymph nodes, liver, lung and peritoneum) were recorded for each mouse in all compared groups. Also the number of metastatic foci that emitted bioluminiscence (derived from the SW1417-luci CRC cells) were counted ex vivo in the target organs for metastasis, using the IVIS® 200-Spectrum (Perkin-Elmer). Samples for histopathological and immunohistochemical analyses were collected and processed. Two independent observers analyzed H&E stained samples to count the number and measure the size of all observed metastatic foci in three (metastasis prevention experiment) or six (regression of metastasis experiment) sections of each organ in each mouse. The images were taken and the measurements were performed with an Olympus microscope with the CellD Olympus software (v3.3). […] The obtained results were used to study a possible correlation between CXCR4^+ CCF and antimetastatic effect at the different sites.
In order to analyze differences between control and experimental groups of affected mice in metastatic rates at the different organs, Fisher's exact test was used. The Mann-Whitney test was used to compare number and size of metastatic foci in the affected organs among groups. All quantitative values were expressed as mean±SE and the statistical tests were performed using SPSS version 11.0 (IBM, New York, USA). Differences among groups was considered significant at a p<0.05.

[3] = test system: CXCR4^+ SW1417 CRC cells; assay: Internalization in CXCR4+ SW1417 CRC cells (flow cytometry, AMD3100 competition); type: cell-based, human; parameters: internalization measured by fluorescence emission using flow cytometry: dose or concentration left out as unconfirmed; conditions: 1 hour exposure
Protocol: CXCR4+ SW1417-luc CRC cells were cultured in modified Eagle's medium (Gibco, Rockville, MD) supplemented with 10% fetal calf serum (Gibco), and incubated at 37° C. and 5% CO2 in a humidified atmosphere. […] Fluorescence emission was measured with a D detector (530/30 nm band pass filter). To assess specificity for CXCR4 receptor-mediated internalization, competition studies were performed incubating CRC SW1417 cells with the CXCR4 antagonist AMD3100 (Sigma Aldrich) in a 1:10 (protein:antagonist) molar ratio for 1 h before exposure to the nanoconjugate at […] for an additional hour.
The cells were washed in phosphate-buffered saline (Sigma-Aldrich). Live cells were recorded by TCS-SP5 confocal laser scanning microscopy (Leica Microsystems, Heidelberg, Germany) using a Plan Apo 63×/1.4 (oil HC×PL APO lambda blue) objective as described. To determine particle localization inside the cell, stacks of 10-20 sections forevery 0.5 μm of cell thickness were collected and three-dimensional models were generated using Imaris version 6.1.0 software (Bitplane, Zurich, Switzerland).

T22-GFP-H6-FdU: nanoconjugate of T22-GFP-H6 protein nanoparticle covalently bound via maleimide linker to thiol-functionalized pentameric floxuridine oligonucleotide (oligo-FdU)
number of apoptotic figures in tumor tissue (Hoechst nuclear condensation or defragmentation) ([1]; 24 h after injection): 13.9±0.5
number of DSBs foci in tumors (anti-gH2AX IHC) ([1]; five hours after treatment): 22.8±1.4
LN foci, mean foci number per mouse ([2]; Regression protocol, 20 μg (or equimolecular) q3d x10 i.v., 6 histology sections, mean + SE): 0.4 ± 0.1 ^h,i
Lung foci, mean foci number per mouse ([2]; Regression protocol, 6 histology sections, mean + SE): 0.7 ± 0.4 ^k,l,m
regression of established lung metastasis ([2]; compared to free oligo-FdU): more potent than free oligo-FdU
primary tumor growth by in vivo bioluminescence emission ([2]; regression experiment, compared to buffer treated animals): significantly inhibited tumor growth
internalization measured by fluorescence emission using flow cytometry [3]: internalized
